Legend:
[1] = Cytotoxicity against human MDA-MB-231 cells assessed as cell growth inhibition after 48 hrs by MTT assay method; assay type: functional, cell-based; conditions: MDA-MB-231, 48 h
[2] = Inhibition of recombinant FT (unknown origin) using FPP as substrate preincubated for 5 mins followed by protein addition measured over 20 mins by fluorescence assay; set-up: species or system Homo sapiens

Structure (SMILES)	IC50 [1]	IC50 [2]
CSCCc1c(-c2cccnc2)nn(-c2ccc(Cl)c(Cl)c2)c1OCCCC(=O)N[C@@H](Cc1ccccc1)C(N)=O	23 µM	–
COC(=O)[C@H](CCSC)NC(=O)c1ccc(NC[C@@H](N)CS)cc1-c1ccccc1	–	1.1 µM
CSCCc1c(-c2cccnc2)nn(-c2ccc(Cl)c(Cl)c2)c1OCCCNC(=O)[C@H](Cc1ccccc1)NS(C)(=O)=O	> 50 µM	> 100 µM
CSCCc1c(-c2cccnc2)nn(-c2ccc(Cl)c(Cl)c2)c1OCCCNC(=O)[C@H](Cc1ccc(F)cc1)NS(C)(=O)=O	> 50 µM	> 100 µM
COc1ccc(C[C@H](NS(C)(=O)=O)C(=O)NCCCOc2c(CCSC)c(-c3cccnc3)nn2-c2ccc(Cl)c(Cl)c2)cc1	> 50 µM	> 100 µM
CSCCc1c(-c2cccnc2)nn(-c2ccc(Cl)c(Cl)c2)c1OCCCNC(=O)[C@H](Cc1cccnc1)NC(C)=O	52.3 µM	> 100 µM
CSCCc1c(-c2cccnc2)nn(-c2ccc(Cl)c(Cl)c2)c1OCCCNC(=O)[C@H](Cc1ccncc1)NC(C)=O	34.9 µM	> 100 µM
CSCCc1c(-c2cccnc2)nn(-c2ccc(Cl)c(Cl)c2)c1OCCCNC(=O)[C@H](Cc1cccnc1)NS(C)(=O)=O	> 50 µM	> 100 µM
COc1ccc(C[C@H](NC(=O)OC(C)(C)C)C(=O)NCCCOc2c(CCSC)c(-c3cccnc3)nn2-c2ccc(Cl)c(Cl)c2)cc1	> 50 µM	> 100 µM
CSCCc1c(-c2cccnc2)nn(-c2ccc(Cl)c(Cl)c2)c1OCCCNC(=O)[C@H](Cc1ccccc1)NC(C)=O	15.4 µM	> 100 µM
CSCCc1c(-c2cccnc2)nn(-c2ccc(Cl)c(Cl)c2)c1OCCCNC(=O)[C@H](Cc1ccncc1)NS(C)(=O)=O	26.5 µM	> 100 µM
CSCCc1c(-c2cccnc2)nn(-c2ccc(Cl)c(Cl)c2)c1OCCCNC(=O)[C@H](Cc1ccc(F)cc1)NC(C)=O	13.2 µM	> 100 µM
COc1ccc(C[C@H](NC(=O)CCCOc2c(CCSC)c(-c3cccnc3)nn2-c2ccc(Cl)c(Cl)c2)C(N)=O)cc1	33.2 µM	> 100 µM
CSCCc1c(-c2cccnc2)nn(-c2ccc(Cl)c(Cl)c2)c1OCCCC(=O)N[C@@H](Cc1ccc(F)cc1)C(N)=O	7.6 µM	> 100 µM
CSCCc1c(-c2cccnc2)nn(-c2ccc(Cl)c(Cl)c2)c1OCCCC(=O)N[C@@H](Cc1cccnc1)C(N)=O	29.4 µM	> 100 µM
COc1ccc(C[C@H](NC(C)=O)C(=O)NCCCOc2c(CCSC)c(-c3cccnc3)nn2-c2ccc(Cl)c(Cl)c2)cc1	14.8 µM	> 100 µM
CSCCc1c(-c2cccnc2)nn(-c2ccc(Cl)c(Cl)c2)c1OCCCC(=O)N[C@@H](Cc1ccncc1)C(N)=O	> 50 µM	> 100 µM

Reference: ChEMBL document CHEMBL3875164, “Pyrazole-based potent inhibitors of GGT1: Synthesis, biological evaluation, and molecular docking studies” (Eur J Med Chem, 2016)
